According to patent US8183238B2, “Bicyclic and tricyclic compounds as KAT II inhibitors” (priority 2009, dated 2012):
Where a name gives a salt, the structure may show the parent alone. Read-outs that look alike come from different tables or passages of the source.

Target: human KAT II (hKAT II) enzyme (Homo sapiens, UniProt Q8N5Z0)
Assay: KAT II Inhibition Spectra Assay
Format: biochemical
Details: hKAT II, decrease in OD370, 37° C., 15-20 h, read-out: KATII IC50
Description: Formation of kynurenic acid (KYNA) is indirectly assessed by a decrease in light absorbance at 370 nm (OD370) as the L-kynurenine (KYN) substrate is converted by the human KAT II (hKAT II) enzyme into KYNA. An inhibitor would therefore inhibit the decrease in OD370.
The protocol was performed by placing the following reagents into a Costar 384 well black plate (30 μL total assay volume/well): • 10 μL of 3× concentrated compound; • 10 μL of 3× concentrated substrate mix (BGG (Sigma G-5009); 3 mM L-Kynurenine in 150 mM Tris Acetate (Sigma K3750); 3 mM α-ketoglutaric acid in 150 mM Tris Acetate (Sigma K2010); and 210 μM pyridoxal 5-phosphate (PLP) in 150 mM Tris Acetate (Sigma 9255)); and • 10 μL of 3× concentrated enzyme (15 nM enzyme in 150 mM Tris Acetate with 0.3% bovine serum).
Plates were sealed and incubated at 37° C. for 15-20 h before reading OD370 on a SpectraMax Plus plate reader. IC50s were generated by comparing the efficacy of compounds across a concentration range to inhibit a reduction in the OD370 value relative to assay wells with DMSO added in place of concentrated compound.

Chain of human KAT II (hKAT II) enzyme (Q8N5Z0 30-425): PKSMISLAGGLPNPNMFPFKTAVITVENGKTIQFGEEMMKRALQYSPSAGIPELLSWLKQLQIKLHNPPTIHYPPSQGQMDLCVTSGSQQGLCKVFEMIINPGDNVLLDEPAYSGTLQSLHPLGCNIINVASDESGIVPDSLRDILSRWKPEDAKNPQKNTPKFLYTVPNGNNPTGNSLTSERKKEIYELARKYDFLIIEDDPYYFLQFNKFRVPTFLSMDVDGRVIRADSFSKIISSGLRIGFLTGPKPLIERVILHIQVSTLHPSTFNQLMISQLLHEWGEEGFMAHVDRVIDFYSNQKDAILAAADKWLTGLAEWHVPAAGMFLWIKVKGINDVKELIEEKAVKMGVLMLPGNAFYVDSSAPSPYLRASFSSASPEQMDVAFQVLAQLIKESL

SMILES	IC50 (Table 6)	IC50 (Table 5)
N[C@H]1Cc2cc(Oc3cncc(Cl)c3)ccc2N(O)C1=O [Example 170, (3S)-3-amino-6-[(5-chloropyridin-3-yl)oxy]-1-hydroxy-3,4-dihydroquinolin-2(1H)-one, ammonium salt]	28.9 nM	
N[C@H]1Cc2ccc(Br)cc2N(O)C1=O [Example 6, (3S)-3-amino-7-bromo-1-hydroxy-3,4-dihydroquinolin-2(1H)-one]		25.4 nM
NC1Cc2cc(Cl)cc(C(F)(F)F)c2N(O)C1=O (stereo not shown) [Example 23]		65.3 nM
N[C@H]1Cc2ccc(OCc3ccccc3)cc2N(O)C1=O [Example 34]		35.6 nM
N[C@H]1Cc2cc(Oc3ccc(F)c(C(F)(F)F)c3)ccc2N(O)C1=O [Example 159, (3S)-3-amino-6-[4-fluoro-3-(trifluoromethyl)phenoxy]-1-hydroxy-3,4-dihydroquinolin-2(1H)-one, trifluoroacetate salt]	109 nM	
COc1cccc(Cc2cc3c(cc2OC)N(O)C(=O)[C@@H](N)C3)c1 [Example 125]	17.2 nM	
NC1Cc2cc(F)cc(Oc3ccccc3)c2N(O)C1=O (stereo not shown) [Example 86]	65 nM	
N[C@H]1Cc2cc(Oc3ccc(F)c(F)c3)ccc2N(O)C1=O [Example 162, (3S)-3-amino-6-(3,4-difluorophenoxy)-1-hydroxy-3,4-dihydroquinolin-2(1H)-one, trifluoroacetate salt]	46.7 nM	
N[C@H]1Cc2cc(Oc3ccc(F)c(Cl)c3)ccc2N(O)C1=O [Example 156, (3S)-3-amino-6-(3-chloro-4-fluorophenoxy)-1-hydroxy-3,4-dihydroquinolin-2(1H)-one, trifluoroacetate salt]	86.7 nM	
Cc1cccc(-c2ccc3c(c2)N(O)C(=O)C(N)C3)c1 (stereo not shown) [Example 63, 3-amino-1-hydroxy-7-(3-methylphenyl)-3,4-dihydroquinolin-2(1H)-one, trifluoroacetate salt]		113 nM
N[C@H]1Cc2cc(Oc3cccc(C(F)(F)F)c3)cnc2N(O)C1=O [Example 79]	29.5 nM	
NC1Cc2cc(Oc3cccnc3)ccc2N(O)C1=O (stereo not shown) [Example 95]	35.9 nM	
NC1Cc2ccc(-c3cccc(F)c3F)cc2N(O)C1=O (stereo not shown) [Example 40, 3-amino-7-(2,3-difluorophenyl)-1-hydroxy-3,4-dihydroquinolin-2(1H)-one, trifluoroacetate salt]		122 nM
N[C@H]1Cc2cc(-c3cccc(Cl)c3)ccc2N(O)C1=O [Example 143, (3S)-3-amino-6-(3-chlorophenyl)-1-hydroxy-3,4-dihydroquinolin-2(1H)-one, trifluoroacetate salt]	96 nM	
COc1ccc2c(c1)N(O)C(=O)C(N)C2 (stereo not shown) [Example 29]		10.5 nM
Cc1ncccc1Oc1ccc2c(c1)CC(N)C(=O)N2O (stereo not shown) [Example 87]	40.9 nM	

SMILES	IC50 (Table 6)	IC50 (Table 5)
Cc1ccc(Oc2ccc3c(c2)CC(N)C(=O)N3O)cn1 (stereo not shown) [Example 88]	20.9 nM	
Cc1ccc2c(c1)CC(N)C(=O)N2O (stereo not shown) [Example 18]		139 nM
COc1ccc(-c2ccc3c(c2)C[C@H](N)C(=O)N3O)c(C)c1 [Example 137, (3S)-3-amino-1-hydroxy-6-(4-methoxy-2-methylphenyl)-3,4-dihydroquinolin-2(1H)-one, trifluoroacetate salt]	69 nM	
NC1Cc2cc(F)ccc2N(O)C1=O (stereo not shown) [Example 2, 3-amino-6-fluoro-1-hydroxy-3,4-dihydroquinolin-2(1H)-one, hydrochloride salt]		23.4 nM
COc1cc2c(cc1Cc1cccc(C(F)(F)F)c1)C[C@H](N)C(=O)N2O [Example 83]	39.7 nM	
N[C@H]1Cc2cc(-c3cc(F)ccc3Cl)ccc2N(O)C1=O [Example 152, (3S)-3-amino-6-(2-chloro-5-fluorophenyl)-1-hydroxy-3,4-dihydroquinolin-2(1H)-one, trifluoroacetate salt]	94 nM	
N[C@H]1Cc2cc(-c3ccccc3F)ccc2N(O)C1=O [Example 136, (3S)-3-amino-6-(2-fluorophenyl)-1-hydroxy-3,4-dihydroquinolin-2(1H)-one, trifluoroacetate salt]	129 nM	
N[C@H]1Cc2cc(-c3cccc(OC(F)(F)F)c3)ccc2N(O)C1=O [Example 131, (3S)-3-amino-1-hydroxy-6-[3-(trifluoromethoxy)phenyl]-3,4-dihydroquinolin-2(1H)-one, trifluoroacetate salt]	246 nM	
N[C@H]1Cc2cc(S(=O)(=O)c3ccccc3)ccc2N(O)C1=O [Example 67, (3S)-3-amino-1-hydroxy-6-(phenylsulfonyl)-3,4-dihydroquinolin-2(1H)-one, hydrochloride salt]	42.1 nM	
C[C@H]1c2ccccc2N(O)C(=O)[C@H]1N [Example 7, (3S,4S)-3-amino-1-hydroxy-4-methyl-3,4-dihydroquinolin-2(1H)-one, hydrochloride salt]		3280 nM
N[C@H]1Cc2cc(F)cc(F)c2N(O)C1=O [Example 120]	61.9 nM	
N[C@H]1Cc2cccc(-c3cccnc3C(F)(F)F)c2N(O)C1=O [Example 90]	355 nM	
N[C@H]1Cc2cc(-c3cc(F)ccc3F)ccc2N(O)C1=O [Example 133, (3S)-3-amino-6-(2,5-difluorophenyl)-1-hydroxy-3,4-dihydroquinolin-2(1H)-one, trifluoroacetate salt]	86.6 nM	
Cc1ccc(F)cc1Oc1ccc2c(c1)C[C@H](N)C(=O)N2O [Example 165, (3S)-3-amino-6-(5-fluoro-2-methylphenoxy)-1-hydroxy-3,4-dihydroquinolin-2(1H)-one, trifluoroacetate salt]	96.6 nM	
N[C@H]1Cc2cc(-c3ccccc3Cl)ccc2N(O)C1=O [Example 154, (3S)-3-amino-6-(2-chlorophenyl)-1-hydroxy-3,4-dihydroquinolin-2(1H)-one, trifluoroacetate salt]	96.5 nM	
N[C@H]1Cc2cc(OC(F)(F)F)ccc2N(O)C1=O [Example 32]		35.9 nM

The remaining lines, values ahead:

IC50 (Table 6)	IC50 (Table 5)	SMILES
42.7 nM		N[C@H]1Cc2cc(Cc3ccccc3)ccc2N(O)C1=O [Example 68, (3S)-3-amino-6-benzyl-1-hydroxy-3,4-dihydroquinolin-2(1H)-one, trifluoroacetic acid salt]
	34.1 nM	N[C@H]1Cc2cccc(OC(F)(F)F)c2N(O)C1=O [Example 37]
39.7 nM		NC1Cc2cc(Oc3cccc(Cl)c3)ccc2N(O)C1=O (stereo not shown) [Example 101]
39.9 nM		NC1Cc2cc(Oc3ccc(F)cc3F)ccc2N(O)C1=O (stereo not shown) [Example 85]
	103 nM	NC1Cc2ccc(-c3cc(F)ccc3F)cc2N(O)C1=O (stereo not shown) [Example 50, 3-amino-7-(2,5-difluorophenyl)-1-hydroxy-3,4-dihydroquinolin-2(1H)-one, trifluoroacetate salt]
54.3 nM		N[C@H]1Cc2cc(Oc3cc(F)cc(Cl)c3)ccc2N(O)C1=O [Example 168, (3S)-3-amino-6-(3-chloro-5-fluorophenoxy)-1-hydroxy-3,4-dihydroquinolin-2(1H)-one, trifluoroacetate salt]
	121 nM	NC1Cc2c(ccc3ccccc23)N(O)C1=O (stereo not shown) [Example 11, 2-amino-4-hydroxy-1,2-dihydrobenzo[f]quinolin-3(4H)-one]
52.7 nM		N[C@H]1Cc2cc(Cl)c(Cl)cc2N(O)C1=O [Example 115]
307 nM		COc1cc(Cl)c2c(c1)N(O)C(=O)[C@@H](N)C2 [Example 104]
	141 nM	CC(C)c1ccc(-c2ccc3c(c2)N(O)C(=O)C(N)C3)cc1 (stereo not shown) [Example 55, 3-amino-1-hydroxy-7-(4-isopropylphenyl)-3,4-dihydroquinolin-2(1H)-one, trifluoroacetate salt]
	51.9 nM	N[C@H]1Cc2c(F)cccc2N(O)C1=O [Example 27]
	50 nM	N[C@H]1Cc2cc(Br)cc(C(F)(F)F)c2N(O)C1=O [Example 24]
	133 nM	NC1Cc2ccc(-c3cc(Cl)ccc3Cl)cc2N(O)C1=O (stereo not shown) [Example 43, 3-amino-7-(2,5-dichlorophenyl)-1-hydroxy-3,4-dihydroquinolin-2(1H)-one, trifluoroacetate salt]
	139 nM	NC1Cc2ccc(-c3cccc(Cl)c3)cc2N(O)C1=O (stereo not shown) [Example 52, 3-amino-7-(3-chlorophenyl)-1-hydroxy-3,4-dihydroquinolin-2(1H)-one, trifluoroacetate salt]
54 nM		N[C@H]1Cc2cc(Oc3ccc(F)cc3Cl)ccc2N(O)C1=O [Example 161, (3S)-3-amino-6-(2-chloro-4-fluorophenoxy)-1-hydroxy-3,4-dihydroquinolin-2(1H)-one, trifluoroacetate salt]
	2230 nM	NC1Cc2ncccc2N(O)C1=O (stereo not shown) [Example 9, 3-amino-1-hydroxy-3,4-dihydro-1,5-naphthyridin-2(1H)-one, dihydrochloride salt]
	136 nM	Cc1ccc(-c2ccc3c(c2)N(O)C(=O)C(N)C3)cc1 (stereo not shown) [Example 39, 3-amino-1-hydroxy-7-(4-methylphenyl)-3,4-dihydroquinolin-2(1H)-one, trifluoroacetate salt]
49.3 nM		N[C@H]1Cc2cc(C3CCOCC3)ccc2N(O)C1=O [Example 112]
	135 nM	N#Cc1ccccc1-c1ccc2c(c1)N(O)C(=O)C(N)C2 (stereo not shown) [Example 62, 2-(3-amino-1-hydroxy-2-oxo-1,2,3,4-tetrahydroquinolin-7-yl)benzonitrile, trifluoroacetate salt]
56.7 nM		NC1Cc2cc(Oc3ccccc3F)ccc2N(O)C1=O (stereo not shown) [Example 107]
